According to PubChem BioAssay AID328 (DTP/NCI, 2004):
Several values for one entry are separate records, joined by “and”; a condition that tells them apart may be missing. Identical values can stand only once. Toxic doses and inconclusive results are not listed.

System: BDF1 mice, P388 leukemia ip, median survival T/C
Assay: NCI In Vivo Anticancer Drug Screen. Data for tumor model P388 Leukemia (intraperitoneal) in B6D2F1 (BDF1) mice
Settings: endpoint: median survival time, higher = longer survival
Summary of the method: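 Antitumour effect was judged in vivo: survival in drug-treated mice, normalised to that of vehicle-dosed controls, gives the reported T/C.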

[1] = dose: 100.0 mg/kg/injection, schedule: Q01DX009 (ip), vehicle: saline
[2] = dose: 200.0 mg/kg/injection, schedule: Q01DX009 (ip), vehicle: saline
[3] = dose: 400.0 mg/kg/injection, schedule: Q01DX009 (ip), vehicle: saline
[4] = dose: 100.0 mg/kg/injection, schedule: Q04DX003 (ip), vehicle: saline
[5] = dose: 200.0 mg/kg/injection, schedule: Q04DX003 (ip), vehicle: saline
[6] = dose: 400.0 mg/kg/injection, schedule: Q04DX003 (ip), vehicle: saline
[7] = dose: 100.0 mg/kg/injection, schedule: Q04DX003 (ip), vehicle: saline with Tween-80
[8] = dose: 200.0 mg/kg/injection, schedule: Q04DX003 (ip), vehicle: saline with Tween-80
[9] = dose: 100.0 mg/kg/injection, schedule: Q01DX009 (ip), vehicle: other
[10] = dose: 200.0 mg/kg/injection, schedule: Q01DX009 (ip), vehicle: other
[11] = dose: 25.0 mg/kg/injection, schedule: Q01DX009 (ip), vehicle: saline with Tween-80
[12] = dose: 50.0 mg/kg/injection, schedule: Q01DX009 (ip), vehicle: saline with Tween-80
[13] = dose: 100.0 mg/kg/injection, schedule: Q01DX009 (ip), vehicle: saline with Tween-80
[14] = dose: 200.0 mg/kg/injection, schedule: Q01DX009 (ip), vehicle: saline with Tween-80
[15] = dose: 50.0 mg/kg/injection, schedule: Q01DX005 (ip), vehicle: saline with Tween-80

Structure (SMILES): C[C@@H]1C[C@@H]([C@H](O)CC2CC(=O)NC(=O)C2)C(=O)[C@@H](C)C1
- T/C (dose: 5.0 mg/kg/injection, schedule: Q01DX010 (ip), vehicle: saline): 100 % of control and 104 % of control
- T/C (dose: 10.0 mg/kg/injection, schedule: Q01DX010 (ip), vehicle: saline): 90 % of control and 114 % of control
- T/C (dose: 15.0 mg/kg/injection, schedule: Q01DX009 (ip), vehicle: Klucel (hydroxypropylcellulose) (HPC)): 100 % of control
- T/C (dose: 20.0 mg/kg/injection, schedule: Q01DX010 (ip), vehicle: saline): 100 % of control (2×) and 119 % of control
- T/C (dose: 30.0 mg/kg/injection, schedule: Q01DX009 (ip), vehicle: Klucel (hydroxypropylcellulose) (HPC)): 90 % of control
- T/C (dose: 39.9 mg/kg/injection, schedule: Q04DX003 (ip), vehicle: Klucel (hydroxypropylcellulose) (HPC)): 114 % of control
- T/C (dose: 39.9 mg/kg/injection, schedule: Q04DX003 (sc), vehicle: Klucel (hydroxypropylcellulose) (HPC)): 110 % of control
- T/C (dose: 40.0 mg/kg/injection, schedule: Q01DX010 (ip), vehicle: saline): 115 % of control and 118 % of control
- T/C (dose: 50.0 mg/kg/injection, schedule: Q04DX003 (ip), vehicle: other): 121 % of control
- T/C (dose: 60.0 mg/kg/injection, schedule: Q01DX009 (ip), vehicle: Klucel (hydroxypropylcellulose) (HPC)): 90 % of control
- T/C (dose: 60.0 mg/kg/injection, schedule: Q01DX010 (ip), vehicle: saline): 168 % of control
- T/C (dose: 60.0 mg/kg/injection, schedule: Q04DX003 (ip), vehicle: Klucel (hydroxypropylcellulose) (HPC)): 118 % of control
- T/C (dose: 64.8 mg/kg/injection, schedule: Q01DX001 (sc), vehicle: Klucel (hydroxypropylcellulose) (HPC)): 108 % of control
- T/C (dose: 64.8 mg/kg/injection, schedule: Q04DX003 (ip), vehicle: Klucel (hydroxypropylcellulose) (HPC)): 119 % of control
- T/C (dose: 64.8 mg/kg/injection, schedule: Q04DX003 (sc), vehicle: Klucel (hydroxypropylcellulose) (HPC)): 107 % of control
- T/C (dose: 100.0 mg/kg/injection, schedule: Q04DX003 (ip), vehicle: other): 178 % of control
- T/C (dose: 108.0 mg/kg/injection, schedule: Q01DX001 (ip), vehicle: Klucel (hydroxypropylcellulose) (HPC)): 109 % of control
- T/C (dose: 108.0 mg/kg/injection, schedule: Q01DX001 (sc), vehicle: Klucel (hydroxypropylcellulose) (HPC)): 110 % of control
- T/C (dose: 108.0 mg/kg/injection, schedule: Q04DX003 (ip), vehicle: Klucel (hydroxypropylcellulose) (HPC)): 118 % of control
- T/C (dose: 108.0 mg/kg/injection, schedule: Q04DX003 (sc), vehicle: Klucel (hydroxypropylcellulose) (HPC)): 96 % of control
- T/C (dose: 120.0 mg/kg/injection, schedule: Q04DX003 (ip), vehicle: Klucel (hydroxypropylcellulose) (HPC)): 90 % of control
- T/C (dose: 180.0 mg/kg/injection, schedule: Q01DX001 (ip), vehicle: Klucel (hydroxypropylcellulose) (HPC)): 108 % of control
- T/C (dose: 180.0 mg/kg/injection, schedule: Q01DX001 (sc), vehicle: Klucel (hydroxypropylcellulose) (HPC)): 116 % of control
- T/C (dose: 180.0 mg/kg/injection, schedule: Q04DX003 (ip), vehicle: Klucel (hydroxypropylcellulose) (HPC)): 98 % of control
- T/C (dose: 200.0 mg/kg/injection, schedule: Q04DX003 (ip), vehicle: other): 97 % of control
- T/C (dose: 300.0 mg/kg/injection, schedule: Q01DX001 (ip), vehicle: Klucel (hydroxypropylcellulose) (HPC)): 114 % of control
- T/C (dose: 300.0 mg/kg/injection, schedule: Q01DX001 (sc), vehicle: Klucel (hydroxypropylcellulose) (HPC)): 118 % of control

Structure (SMILES): Cc1nnc2ncccn12
- T/C (dose: 50.0 mg/kg/injection, schedule: Q01DX009 (ip), vehicle: saline): 96 % of control and 102 % of control and 106 % of control
- T/C [1]: 97 % of control and 102 % of control (2×)
- T/C [2]: 115 % of control
- T/C [3]: 93 % of control

Structure (SMILES): COC(=O)C1=C(C)NC(=O)NC1c1ccc(N(CCCl)CCCl)c(OC)c1 (configuration not stated)
- T/C (dose: 1.3 mg/kg/injection, schedule: Q01DX009 (ip), vehicle: saline with Tween-80): 169 % of control
- T/C (dose: 2.0 mg/kg/injection, schedule: Q01DX009 (ip), vehicle: saline with Tween-80): 227 % of control
- T/C (dose: 3.0 mg/kg/injection, schedule: Q01DX009 (ip), vehicle: saline with Tween-80): 220 % of control
- T/C (dose: 4.5 mg/kg/injection, schedule: Q01DX009 (ip), vehicle: saline with Tween-80): 227 % of control

Structure (SMILES): NNC(=O)c1ccc(Cl)cc1Nc1ccc(F)cc1
- T/C (dose: 50.0 mg/kg/injection, schedule: Q04DX003 (ip), vehicle: saline): 104 % of control
- T/C [4]: 100 % of control

Structure (SMILES): O=C(Nc1ccc([N+](=O)[O-])cc1)Nc1ccc([N+](=O)[O-])cc1 (tested in a mixture with another compound)
- T/C [1]: 109 % of control
- T/C [4]: 112 % of control and 104 % of control
- T/C [2]: 122 % of control
- T/C [5]: 100 % of control and 91 % of control
- T/C [3]: 118 % of control
- T/C [6]: 112 % of control and 100 % of control

Structure (SMILES): CCC[As](CCC)SC1OC(COC(C)=O)C(OC(C)=O)C(OC(C)=O)C1OC(C)=O (configuration not stated)
- T/C (dose: 50.0 mg/kg/injection, schedule: Q01DX009 (ip), vehicle: saline + alcohol): 109 % of control

Structure (SMILES): Cn1c(N)c(N=Cc2ccc(Cl)cc2)c(=O)n(C)c1=O
- T/C [7]: 92 % of control
- T/C [8]: 99 % of control

Structure (SMILES): CC(C)CSP(=S)(c1cc(Cl)ccc1Cl)c1cc(Cl)ccc1Cl
- T/C (dose: 50.0 mg/kg/injection, schedule: Q01DX009 (ip), vehicle: other): 102 % of control
- T/C [9]: 101 % of control
- T/C [10]: 105 % of control

Structure (SMILES): COC(=O)c1ncccc1C(=O)O
- T/C [11]: 86 % of control
- T/C [12]: 95 % of control
- T/C [13]: 90 % of control

Structure (SMILES): Cc1ccc(CBr)c2ccccc12
- T/C (dose: 6.25 mg/kg/injection, schedule: Q01DX009 (ip), vehicle: saline with Tween-80): 102 % of control
- T/C (dose: 12.5 mg/kg/injection, schedule: Q01DX009 (ip), vehicle: saline with Tween-80): 114 % of control
- T/C [11]: 124 % of control
- T/C [12]: 105 % of control
- T/C [13]: 121 % of control

Structure (SMILES): CCOC(=O)C1CC1c1ccccc1 (configuration not stated)
- T/C [12]: 110 % of control
- T/C [13]: 115 % of control and 121 % of control
- T/C [14]: 119 % of control
- T/C (dose: 400.0 mg/kg/injection, schedule: Q01DX009 (ip), vehicle: saline with Tween-80): 112 % of control

Structure (SMILES): O=C(O)/C=C/C(=O)Nc1ccc(Cl)c(Cl)c1
- T/C (dose: 25.0 mg/kg/injection, schedule: Q01DX009 (ip), vehicle: Klucel (hydroxypropylcellulose) (HPC)): 104 % of control
- T/C (dose: 50.0 mg/kg/injection, schedule: Q01DX009 (ip), vehicle: Klucel (hydroxypropylcellulose) (HPC)): 111 % of control
- T/C (dose: 100.0 mg/kg/injection, schedule: Q01DX009 (ip), vehicle: Klucel (hydroxypropylcellulose) (HPC)): 111 % of control

Structure (SMILES): CC(=O)NS(=O)(=O)c1ccc(NC(=O)c2ccccc2C(=O)O)cc1
- T/C (dose: 50.0 mg/kg/injection, schedule: Q04DX003 (ip), vehicle: saline with Tween-80): 100 % of control
- T/C [7]: 100 % of control
- T/C [8]: 100 % of control

Structure (SMILES): O=C(CI)N1c2ccccc2Sc2ccc3ccccc3c21
- T/C [12]: 91 % of control
- T/C [13]: 96 % of control
- T/C [14]: 116 % of control

Structure (SMILES): CC(C)(C)OC(=O)NC(CCCCNC(=O)OCc1ccccc1)C(=O)NC(CCCCNC(=O)OCc1ccccc1)C(=O)NC(CCCCNC(=O)OCc1ccccc1)C(=O)OCc1ccccc1 (configuration not stated)
- T/C [15]: 86 % of control
- T/C (dose: 200.0 mg/kg/injection, schedule: Q01DX005 (ip), vehicle: saline with Tween-80): 90 % of control

Structure (SMILES): O=C1c2ccccc2C(=O)N1CC[P+](c1ccc(Cl)cc1)(c1ccc(Cl)cc1)c1ccc(Cl)cc1
- T/C (dose: 0.78 mg/kg/injection, schedule: Q01DX009 (ip), vehicle: water): 103 % of control
- T/C (dose: 1.56 mg/kg/injection, schedule: Q01DX009 (ip), vehicle: water): 103 % of control
- T/C (dose: 3.13 mg/kg/injection, schedule: Q01DX009 (ip), vehicle: water): 103 % of control
- T/C (dose: 6.25 mg/kg/injection, schedule: Q01DX009 (ip), vehicle: water): 110 % of control
- T/C (dose: 12.5 mg/kg/injection, schedule: Q01DX009 (ip), vehicle: water): 103 % of control
- T/C (dose: 25.0 mg/kg/injection, schedule: Q01DX009 (ip), vehicle: water): 103 % of control

Structure (SMILES): CC(=O)Oc1cccnc1C(C#N)C#N
- T/C [15]: 92 % of control

Structure (SMILES): CCCCCCCCCCC(=O)CCCCC
- T/C [9]: 90 % of control
- T/C [10]: 100 % of control
- T/C (dose: 400.0 mg/kg/injection, schedule: Q01DX009 (ip), vehicle: other): 110 % of control

Structure (SMILES): COC(C)C(Br)C(=O)O (configuration not stated)
- T/C [1]: 88 % of control
- T/C [4]: 100 % of control
- T/C [2]: 92 % of control
- T/C [5]: 91 % of control
- T/C [6]: 91 % of control
